The values that follow come from patent US20170198011A1, “COMPOSITION FOR TREATING SEPSIS OR SEPTIC SHOCK COMPRISING THE PEPTIDE ORIGINATED FROM THE SMAD6” (Medpacto, Inc., priority 2011, published 2017).

Where no end group is shown, it is not given here. The star is where a group is joined. Palmitoyl = CCCCCCCCCCCCCCCC(=O)*

In one test the test system is IL6 inflammatory gene. In words: LPS-induced IL-6 expression in RAW264.7 cells by quantitative real-time RT-PCR. To be noted: RAW264.7 mouse macrophages, pre-treatment, then LPS. The format is cell-based. Here is the method: FIG. 4A is a graph showing IL-6 levels in RAW264.7 cells as measured by quantitative real-time RT-PCR after treatment with scrambled peptides (Pal-Scram; 100 nM) or Smaducin-6 and then with LPS,

In another test the test system is IFN-β1. Nature of the test: IFN-β1 in peritoneal fluid (ELISA) and splenocytes (FACS) of CLP mice. The format is in vivo. Conditions: injected 2 and 14 hrs after CLP. The source says: FIG. 8C is a graph showing levels of the IFN-β1cytokine in peritoneal fluid from mice subcutaneously injected with Smaducin-6 or scrambled peptides at 2 and 14 hrs after sepsis induction by CLP, as analyzed by ELISA, the peritoneal fluid being taken 24 hrs after CLP induction,
FIG. 8D is a graph showing expression levels of IFN-β1 in splenocytes of mice subcutaneously injected with Smaducin-6 or scrambled peptides at 2 and 14 hrs after sepsis induction by CLP, as measured by FACS, the splenocytes being taken 24 hrs after sepsis induction,
To analysis the mechanism of the anti-apoptotic activity of Smaducin-6, an examination was made of the IFN-β1-induced TRAIL expression. In this regard, 2 and 14 hrs after CLP, the scrambled peptides or the Smaducin-6 peptide was injected to the mice, and the expression of IFN-β1 in the peritoneal fluid from the mice was analyzed using ELISA in the same manner as in Example 6. In splenocytes from each mouse group, the expression level of IFN-β1 was determined using flow cytometry (FACS). For flow cytometry, IFN-β1 was detected by FITC-conjugated anti-mouse IFN-β antibody (22400-3, interferon source), and stained before data analysis using CellQuest Pro software (BD Bioscience).
A general note: ELISA stands for enzyme-linked immunosorbent assay.

The test system of a further test is TRAIL. Nature of the test: TRAIL expression in splenocytes of CLP mice (flow cytometry, immunohistochemistry). To be noted: sepsis mice, flow cytometry and immunohistochemistry. Type of test: in vivo. An excerpt: FIG. 8E is a graph showing expression levels of TRAIL in splenocytes of mice subcutaneously injected with Smaducin-6 or scrambled peptides at 2 and 14 hrs after sepsis induction by CLP, as measured by FACS, the splenocytes being taken 24 hrs after sepsis induction, and
Also, the effect of Smaducin-6 on the expression of TRAIL in mice with CLP-induced sepsis was examined. Splenocytes from the mice were subjected to flow cytometry and immunohistochemistry for TRAIL in the same manner as in Examples 8B and 8D. In this context, rabbit antibody TRAIL (C92B9, cell signaling), and FITC-conjugated goat antibody to […] (NOVUS) were used as a primary and a secondary antibody, respectively.

The subject of another test is neutrophils. In words: Peritoneal neutrophil migration in LPS septic shock mice. Type of test: in vivo, BALB/c mice. To be noted: LPS 60 mg/kg, injected 2 and 14 hrs after, neutrophils isolated at 24 hrs. The source says:
FIG. 7B is a graph showing neutrophil counts in the peritoneal fluid taken from BALB/c mice with LPS-induced septic shock at 24 hrs after LPS injection,
In mice with CLP-induced sepsis, the bacterial clearance of Smaducin-6 was examined. Smaducin-6 or the scrambled peptides were subcutaneously injected into CLP mice from which peritoneal fluid was then extracted from the mice, and bacteria in the fluid was counted. […] An examination was made to see whether this bacterial clearance of Smaducin-6 was attributed to the intraperitoneal migration of neutrophils. To this end, 2 and 14 hrs after induction of septic shock by injecting 60 mg/kg of LPS, Smaducin-6 or the scrambled peptides were injected into septic shock mice, and 24 hrs after the induction of septic shock, neutrophils were isolated from the peritoneal cavity using Histopaque-1077 (Sigma). Mouse neutrophils were counted using Trypan Blue (Sigma).

For the next test, the system named is GRK2. In words: LPS-induced GRK2 expression in human neutrophils (immunoblot). The format is cell-based. Conditions: 100 nM for 2 hrs, then LPS 2 hrs. On the procedure: To examine how Smaducin-6 interrupts with the LPS-induced downregulation of CXCR2, the levels of G-protein-coupled receptor kinase 2 (GRK2) in human neutrophils and RAW264.7 macrophages were measured. GRK2 is upregualted by LPS, which is known to suppress the expression of CXCR2.

Test [1] has as its system IRAK1-, RIP1- or IKKε-mediated signaling complexes. In words: Co-immunoprecipitation of LPS-induced TLR4 downstream signaling complexes in primary peritoneal macrophages. Type of test: cell-based, mice. On the procedure: A co-immunoprecipitation assay was carried out as follows. For use as antibodies in co-immunoprecipitation, mouse anti-HA (F-7), mouse anti-c-Myc (9E10), rabbit anti-IκBα (C-21), mouse anti-IRAK1 (F-4), and mouse anti-TRAF6 (D-10) were purchased from Santa Cruz Biotechnology (USA), the antibodies rabbit anti-Pellino-1 and rabbit anti-IRAK4 from Imgenex, the antibodies rabbit anti-Smad6, rabbit anti-MyD88 (D80F5), rabbit anti-IKKα, rabbit anti-phospho-IKKα/β, rabbit anti-RIP1 (D94C12), rabbit anti-IKKi (anti-IKKE; D61F9), rabbit anti-TBK1 (D1B4), rabbit anti-GRK2 from Cell Signaling, and the antibody anti-β-actin from Sigma. Cells were lysed in a lysis buffer (PBS containing 0.5% Triton X-100, 20 mM HEPES (pH 7.4), 150 mM NaCl, 12.5 mM β-glycerol phosphate, 1.5 mM MgCl2, 10 mM NaF, 2 mM DTT, 1 mM Na3O4V, 2 mM EGTA, 1 mM PMSF and protease inhibitor mixture), and harvested by centrifuging 13,000 rpm for 10 min. For immunoprecipitation, the cell lysate were incubated at 4° C. for 12 hrs with protein-A agarose beads and the above-mentioned antibodies. Afterwards, the beads were washed three times with a lysis buffer, and treated with a 2× sample buffer to separate the co-immunoprecipitates therefrom. The co-immunoprecipitates were boiled, followed by SDS-PAGE.
To examine whether Smaducin-6 interrupts the formation of the downstream signaling complex of TLR4, the cells were pre-treated with Smaducin-6 in the same manner as in Example 1, and analyzed for the LPS-induced formation of the signaling complex using a co-immunoprecipitation method. For control, the same experiment was conducted with scrambled peptides.

In test [2] the test system is BALB/c mice with LPS-induced septic shock. In words: Survival of mice with LPS-induced septic shock. Type of test: in vivo. Conditions: LPS 60 mg/kg intraperitoneal, 16 mg/kg injected four times every 12 hrs from 2 hrs after LPS. On the procedure:
FIG. 5D is a graph showing survival rates of BALB/c mice treated with 16 mg/kg Smaducin-6 or scrambled peptides after septic shock is induced by LPS;
Moreover, therapeutic effects of Smaducin-6 were examined in animal models of septic shock as well as CLP-induced sepsis. In this regard, LPS was intraperitoneally injected at a dose of 60 mg/kg into BALB/c mice, and from two hrs after LPS injection, Smaducin-6 was injected four times at regular intervals of 12 hrs into the mice.

“Smaducin-6: palmitic acid conjugated to N-terminus of the 20-amino-acid peptide of Smad6 position 422 to 441, GGRALVVRKVPPGYSIKVFD (SEQ ID NO: 1) (Palmitoyl-GGRALVVRKVPPGYSIKVFD)”: in the test with IL6 inflammatory gene, the “expression of LPS-induced IL6 inflammatory gene” value was “reduced the expression of LPS-induced IL6 inflammatory gene in a dose-dependent manner”. Also, in the test on IFN-β1 (ELISA (FIG. 8C)), the “production of IFN-β1 in peritoneal fluid” value was “inhibited”. In the test with IFN-β1 (FACS (FIG. 8D)), the “expression level of IFN-β1 in splenocytes” value is on record as “inhibited”. The “TRAIL expression in splenocytes” value in the test with TRAIL is “reduced”. Also, in the test on neutrophils, the “migration of neutrophils to the peritoneal cavity” value is listed as “increased”. Moreover, the “LPS-induced GRK2 expression” value with GRK2 is on record as “downregualed”. Further, in test [1], the “LPS-induced formation of the IKKε-mediated signaling complex” value is on record as “suppressed”, the “LPS-induced formation of the IRAK1-mediated signaling complex” value is reported as “suppressed” and the “LPS-induced formation of the RIP1-mediated signaling complex” value was “suppressed”. Moreover, the “survival in LPS-induced septic shock” value in test [2] is “therapeutic”.
